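Following 48 hours of exposure in 96-well plates, responses at five concentrations were used to interpolate endpoints linearly. GI50 is the concentration that inhibits growth by half. Definition used: TGI = concentration required for complete inhibition of growth.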

Test in all cases: NCI tumour cell line growth inhibition, 48 h
The subject of assay [1] is SNB-75 CNS.
Assay [2] has as its system NCI-H460 lung.
For assay [3], the system named is A498 renal.
The test system of assay [4] is ACHN renal.
The subject of assay [5] is HS 578T breast.
Assay [6] has as its system MDA-MB-231 breast.
For assay [7], the system named is SK-MEL-2 melanoma.
Assay [8] deals with OVCAR-4 ovarian.
Assay [9] relates to OVCAR-8 ovarian.
Assay [10] concerns M14 melanoma.

`N=C(N)SCC(=O)O`: the TGI in [1], in [2], in [3], in assay [4], in assay [5] and in [6] was > 100 µM each time. Further, the TGI in assay [7], in assay [8], in assay [9] and in [10] was > 100 µM in each case.
For `CCCCCCCCCCCCNC(=O)[C@H]1CSC(c2ccsc2)N1` (stereo not given in full), the GI50 was 0.938 µM in [1]; 0.986 µM in assay [2]; 9.62 µM in assay [3]; 0.938 µM in assay [4]; 1.17 µM in assay [5]; 0.946 µM in [6]. In addition, the GI50 in assay [7] is 0.974 µM; in [8], 0.911 µM; in assay [9], 1.11 µM; in assay [10], 0.855 µM. The TGI in [1] came to 1.67 µM; in [2], 1.84 µM; in [3], 17.1 µM; in assay [4], 1.75 µM; in assay [5] it was 2.45 µM; in [6], 1.74 µM. Further, the TGI in [7] amounted to 1.76 µM; in [8], 1.73 µM; in assay [9], 2.26 µM; in [10] it was 1.63 µM.
On to `N#CC1=C(N)Oc2c(sc3c(Br)cccc23)C1c1ccc(F)cc1` (stereo not given), for which the GI50 in [1] is 0.327 µM; in assay [2], 0.376 µM; in assay [3], 0.314 µM; in [4], 0.682 µM; in assay [5], 0.851 µM; in [6] it was 0.824 µM. Besides, the GI50 is 0.487 µM in [7], 0.65 µM in [8], 0.76 µM in [9] and 0.3 µM in assay [10]. Besides, the TGI is 18.9 µM in [1]; 14.6 µM in [2]; 16.7 µM in assay [3]; 17 µM in [4]; 52.7 µM in assay [5]; 15.9 µM in assay [6]. Moreover, the TGI worked out at 31.1 µM in [7], 23.4 µM in assay [8], 24.4 µM in assay [9] and 14.9 µM in assay [10].
Regarding `NC1(C(=O)O)CSSC1`, the GI50 in assay [1] is 2.91 µM; in assay [2], 3 µM; in assay [3] it was 2.53 µM; in assay [4], 3.63 µM; in assay [5], 3.91 µM; in assay [6], 17.1 µM. Further, the GI50 in assay [7] was 2.66 µM; in [8] it was 5.44 µM; in assay [9], 3.6 µM; in assay [10] it was 3.21 µM. In addition, the TGI in assay [1] is 21.5 µM; in assay [2], > 100 µM; in assay [3] it was 7.27 µM; in assay [4] it was 14.2 µM; in [5], > 100 µM; in [6] it was 44.3 µM. Also, the TGI in assay [7] is 7.95 µM; in assay [8], 46.5 µM; in assay [9], 24.4 µM; in [10], 11.8 µM.
Turning to `O=C(Nc1nc2ccc(F)cc2s1)c1cccnc1Nc1ccc(Cl)cc1Cl`, the GI50 in [1] was 1.96 µM; in assay [2], 2.67 µM; in assay [3], 2.13 µM; in assay [4], 3.35 µM; in assay [5], 2.92 µM; in assay [6], 3.11 µM. Further, the GI50 in assay [7] is 3.3 µM; in [8], 1.57 µM; in assay [9], 3.43 µM; in assay [10], 3.18 µM. Moreover, the TGI was 9.14 µM in assay [1]; 12.4 µM in assay [2]; 6.84 µM in assay [3]; 13.7 µM in assay [4]; 19.7 µM in assay [5]; 14.4 µM in assay [6]. Further, the TGI in [7] was > 26.2 µM; in assay [8], > 44.5 µM; in assay [9] it was 22.8 µM; in assay [10], 14.6 µM.
With `O=C(O)C(O)c1ccc(F)cc1` (stereo not given), the TGI in [1], in [2], in assay [3], in assay [4], in [5] and in [6] was > 100 µM throughout. In addition, the TGI in [7], in [8], in assay [9] and in [10] was > 100 µM throughout.
Regarding `Cc1cc(C(=O)Nc2cc(Nc3ncccc3-c3ncnc4nc[nH]c34)ccc2F)cc(C(C)(C)C#N)c1`, the GI50 is 8.92 µM in [1]; 1.98 µM in [2]; 0.0748 µM in assay [3]; 1.22 µM in [4]; 1.92 µM in assay [5]; 0.123 µM in assay [6]. Also, the GI50 in assay [7] is 0.0866 µM; in assay [8], 5.33 µM; in [9], 3.02 µM; in assay [10], 0.0388 µM. Further, the TGI in assay [1] was > 100 µM; in [2] it was > 100 µM; in assay [3] it was 0.491 µM; in [4], > 100 µM; in assay [5], > 100 µM; in [6], 5.36 µM. For the same molecule, the TGI in [7] was 2.04 µM; in [8], > 100 µM; in assay [9] it was > 100 µM; in assay [10], 1.12 µM.
`Nc1ccc2c(SCC(=O)Nc3ccccc3-c3ccccc3NC(=O)CSc3c4ccccc4nc4cc(N)ccc34)c3ccccc3nc2c1`: the TGI in assay [1] was > 96.4 µM; in [2], 97.8 µM; in assay [3], 65.9 µM; in assay [4], > 86.6 µM; in [5] it was > 90 µM; in [6], > 84 µM. Also, the TGI was 68 µM in assay [7], 78.9 µM in [8], 73.2 µM in assay [9] and 59 µM in assay [10].
